Results on one molecule are retold here after patent publication US20160045498A1, “METHODS OF TREATING DISEASES CHARACTERIZED BY EXCESSIVE WNT SIGNALLING” (THE WALTER AND ELIZA HALL INSTITUTE OF MEDICAL RESEARCH, priority 2013, published 2016).

The test system of one assay is SW480 cells. The experiment in a line: SW480 tumor xenografts. Format: in vivo, human. As for the experimental part: a Tumour xenograft burden in BALB/c nude mice injected s.c. with SW480 cells in matrigel and receiving daily gavage with AZD1480 (30 mg/kg) or vehicle starting on the 5th day after cell inoculation. (*p≦0.018; two sided t-test; n=12 mice), d Immunohistochemical analysis of p21 expression in xenograft tumours following 35 days of treatment with Jak2 inhibitor AZD1480 or vehicle. Scale bar=100 μm. e RT-qPCR expression analysis for SOCS3, p21 and CYCLIN D1 in SW480 xenografts from FIG. 5a and b (p=0.04; n=3 mice). One flank of female BALB/c nude mice was injected subcutaneously with 2×10^6 SW480 cells resuspended in Matrigel (BD Biosciences)/PBS (1:1) at a final volume of 200 μl. Once tumor became palpable (>100 mm^3) approximately 5 days later, mice received continuous daily gavage of the Jak2 inhibitor AZD1480 ([…] et al., 2009) (30 mg/kg, a gift from Astra-Zeneca). Gene expression analysis by RT-qPCR was performed using the SybrGreen method (ABI) as described previously ([…] et al., 2008). Fold change was calculated using the 2^-ΔΔCT method (Livak et al., 2001). Protein expression was analysed by Western blot by transferring SDS-PAGE separated protein lysates to nitrocellulose membrane and blocked either in 5% non-fat milk powder and probed with antibodies detecting p16 (Santa Cruz; #sc-467), Bmi1 (Millipore #[…]), Actin (Sigma; #A2066) or Gapdh (Santa Cruz; #sc-69778). All antibodies were diluted 1:1000 in BSA or non-fat milk powder and incubations were performed overnight. Tissues were fixed and immunohistochemistry performed as described previously (Sansom et al., 2007). Primary antibodies used were rabbit phospho-Stat3 to Tyr705 (Santa Cruz #9134s, 1:150), mouse β-catenin (Transduction Laboratories, 1:300), rabbit PCNA (Santa Cruz #7907, 1:100), rabbit […] (Santa Cruz N-262. Lot #C1309, 1:200), and goat p21 (Santa Cruz #Sc-397-G; 1:100).
A general note: In xenograft studies the graft and the host belong to different species.

For another assay, the system named is SW480^APC cells. Description: Soft agar colony growth assay, SW480APC. It is filed as cell-based, human. Particulars: 10 days, AZD1480 1 μM, S3I-201 50 μM, IL11 10 ng/ml. As for the experimental part:
e Photograph of SW480 and SW480^APC CRC cells grown for 10 days under colony forming conditions in soft agar in the presence of vehicle or 1 μM of Jak2 inhibitor AZD1480 (Jak2i) (Scale bar=200 μm)
f Colony forming capacity of an isogenic pair of SW480 cells scored 10 days after the indicated treatment. (*p≦0.04; triplicate cultures and repeated).
SW480 and SW480^APC cells (Faux et al., 2004) were seeded in 2 ml of RPMI media supplemented with 10% FBS and 1% penicillin/streptomycin in 35 mm culture dishes at a density of 2×10^5 cells per dish. Three days later cultures were exposed to AZD1480 (1 μM) for 15 min. Co-immunofluorescence was then performed with antibodies to rabbit phospho-Stat3 (Tyr705, Santa Cruz #9134s, 1:200 dilution) and mouse β-catenin (Transduction Laboratories, 1:400). Colony formation assays of SW480 cells in soft agar were performed as described (Faux et al., 2004) in the presence of either AZD1480, (1 μM), the Stat3 inhibitor S3I-201 (Biovision, 50 μM) or recombinant human IL11 (Genetics Institute, 10 ng/ml). All experiments were performed in triplicates and repeated at least once. Vehicle was methylcellulose.

In another assay the test system is small intestine. The experiment in a line: Irradiation induced intestinal regeneration. Format: in vivo. The conditions noted are these: gp130^F/F mice, AZD1480 30 mg/kg, 72 h after γ-irradiation (14 Gy). As for the experimental part: a Immunohistochemical analysis for the proliferation marker PCNA on sections of small intestines of wild-type (Wt), gp130^F/F (F/F), Stat3^+/−, gp130^F/F;Stat3^+/− (F/F Stat3^+/−), gp130^ΔStat/ΔStat (Δ/Δ) and gp130^ΔStat/+ (Δ/+) as well as of Wt and F/F mice treated with Jak2 kinase inhibitor AZD1480 (Jak2i; 30 mg/kg) 72 h after exposure to γ-irradiation. Scale bar=100 μm.
b Enumeration of intact crypts in cross sections from the proximal small intestine stained for PCNA obtained 72 h after exposure of mice of the indicated genotype to γ-irradiation. (*p≦0.04; n=3 mice).
Mice were irradiated with a single dose of 14 Gy of γ-irradiation (0.414 Gy/min) to determine regenerative potential of the small intestine as described (Ashton et al., 2010).

Each structure is given as a SMILES string.

Turning to `Cc1cc(Nc2nc(N[C@@H](C)c3ncc(F)cn3)ncc2Cl)n[nH]1` [AZD1480], in the assay on SW480 cells (BALB/c nude mice, s.c., daily gavage 30 mg/kg from day 5), the “growth of established SW480 tumours” value is recorded as “reduced the growth”. For the same molecule, in the assay with SW480 cells (RNA from SW480 xenografts), the “CYCLIND1 expression (RT-qPCR)” value was “decrease”, the “SOCS3 expression (RT-qPCR)” value was “decrease” and the “p21 expression (RT-qPCR)” value is reported as “increased”. Further, the “p21 expression in tumours (immunohistochemistry)” value with SW480 cells (SW480 xenografts, 35 days of treatment, vs vehicle) is “increased”. Besides, the “colony formation in soft agar” value with SW480^APC cells was “did not affect colony formation”. Further, the intestinal regeneration entry in the assay with small intestine is listed as “impaired”.
